Results published in patent publication US20240384268A1, “Oligonucleotides” (Hudson Institute of Medical Research, priority 2021, published 2024).
In the oligonucleotide strings, read from the 5' end, every base follows the letter of its sugar. An asterisk marks phosphorothioate; unmarked linkages are phosphodiester. Other units and linkages are bracketed, terminal groups are in braces. A string of capitals states the bases alone. m = 2'-O-methyl

Biological target: T1, human TLR7 (Homo sapiens, UniProt Q9NYK1)
T1 construct: HA; host or cells: 293XL-hTLR7-HA (HEK293)
T1 sequence (Q9NYK1 27-1049): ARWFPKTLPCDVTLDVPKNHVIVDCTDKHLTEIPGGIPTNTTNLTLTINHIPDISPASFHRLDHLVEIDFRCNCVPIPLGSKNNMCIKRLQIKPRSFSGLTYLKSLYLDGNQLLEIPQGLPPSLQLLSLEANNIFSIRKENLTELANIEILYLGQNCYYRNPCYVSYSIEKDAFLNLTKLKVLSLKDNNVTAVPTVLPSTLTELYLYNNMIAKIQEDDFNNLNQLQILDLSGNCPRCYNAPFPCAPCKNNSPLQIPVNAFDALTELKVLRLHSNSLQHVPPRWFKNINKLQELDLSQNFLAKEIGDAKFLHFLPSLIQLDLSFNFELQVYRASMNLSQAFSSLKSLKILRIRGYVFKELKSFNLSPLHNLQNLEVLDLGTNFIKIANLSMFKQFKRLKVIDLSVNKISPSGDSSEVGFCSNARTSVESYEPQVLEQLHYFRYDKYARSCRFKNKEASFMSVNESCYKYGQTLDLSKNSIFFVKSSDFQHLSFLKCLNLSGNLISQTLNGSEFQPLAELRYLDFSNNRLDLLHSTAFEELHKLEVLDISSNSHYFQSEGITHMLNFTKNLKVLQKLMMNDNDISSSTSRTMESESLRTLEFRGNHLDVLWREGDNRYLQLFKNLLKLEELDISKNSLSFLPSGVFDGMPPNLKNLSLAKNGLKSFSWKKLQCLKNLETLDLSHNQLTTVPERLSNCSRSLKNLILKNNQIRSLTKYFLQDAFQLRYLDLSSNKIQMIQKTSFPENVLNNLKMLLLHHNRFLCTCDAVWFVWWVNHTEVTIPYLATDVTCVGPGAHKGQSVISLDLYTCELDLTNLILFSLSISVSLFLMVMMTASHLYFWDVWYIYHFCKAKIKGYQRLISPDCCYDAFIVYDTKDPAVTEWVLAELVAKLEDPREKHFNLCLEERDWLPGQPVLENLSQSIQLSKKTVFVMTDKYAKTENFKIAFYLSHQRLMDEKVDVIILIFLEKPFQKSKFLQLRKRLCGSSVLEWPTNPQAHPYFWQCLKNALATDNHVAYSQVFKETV
Assay: HEK-TLR7 NF-κB-luciferase reporter, R848 stimulation
Assay type: cell-based
Details: HEK-TLR7; for TLR7 400 nM: 3mer 2'OMe ASO at 400 nM; for TLR7 400 nM / TLR7 2 uM: value relative to Ligand only = 1.000, NT = 0.000; for TLR7 2 uM: 3mer 2'OMe ASO at 2 uM; for inhibition of TLR7 by 3-mer 2′OMe oligos (in words): 400 nM and 2 μM 3-mer, ~30 min, R848 1 μg/ml

| Substance | TLR7 400 nM | TLR7 2 uM | inhibition of TLR7 by 3-mer 2′OMe oligos (in words) |
| --- | --- | --- | --- |
| mGmUmA (GUA; all 2'-O-methyl, backbone not given here; further chemistry not fully specified) [shortMut1-3b] | 0.702 | 0.239 | inhibiting TLR7 |
| mGmUmC (mG*mU*mC) [GUC, 3-mer 2′OMe PS oligo] | 0.140 | 0.017 | most potent 3-mer inhibiting TLR7 |
| mGmUmG (mG*mU*mG) [GUG, 3-mer 2′OMe PS oligo] | 0.449 | 0.072 | inhibiting TLR7 |
| mGmUmU (mG*mU*mU) [GUU, 3-mer 2′OMe PS oligo] | 0.781 | 0.119 | inhibiting TLR7 |
| mUmCmA (mU*mC*mA) [UCA, 3-mer 2′OMe PS oligo] | 1.122 | 0.819 |  |
| mUmCmG (antisense mU*mC*mG) [660-3b] | 0.979 | 0.982 |  |
| mUmGmA (mU*mG*mA) [UGA, 3-mer 2′OMe PS oligo] | 1.126 | 0.831 |  |
| mUmGmG (mU*mG*mG) [UGG, 3-mer 2′OMe PS oligo] | 1.029 | 0.989 |  |
